Laboratory results taken from article PMC11597089, “Kratom Alkaloids: A Blood–Brain Barrier Specific Membrane Permeability Assay-Guided Isolation and Cyclodextrin Complexation Study” (Molecules, 2024).

How the values were obtained:
[1] = ACE complex stability, γ-CD; assay type: physicochemical; settings: 30 mM phosphate buffer pH 7.4, 25 °C, 15 kV, 215 nm
Protocol: (§1) To investigate the CD complexation behavior of the four kratom alkaloids, we aimed to develop an ACE method for a systematic comparative study. […] To ensure sufficient buffer capacity and to avoid excessive current and Joule heat generation, the buffer concentration was set to 30 mM, and the applied voltage was 15 kV.
(§2) The ACE experiments were performed by using Agilent 7100 and HP^3DCE instruments (Agilent Technologies, Waldbronn, Germany). Untreated fused silica capillaries (total length of 48.5 cm, effective length of 40 cm, inner diameter of 50 μm) were purchased from Agilent Technologies. The new capillaries were conditioned with a 1 M NaOH wash for 1 h, followed by a 30 min wash each with 0.1 M NaOH and purified water. Prior to all runs, the capillary was preconditioned by rinsing with background electrolyte for 3 min. During the measurements, 30 mM phosphate buffer at pH 7.4 (30 mM Na2HPO4-NaOH) was used. The background electrolyte contained CDs at various concentrations. Stock solutions of the studied kratom alkaloids (mitragynine, paynantheine, speciogynine, speciociliatine) were prepared separately in methanol (1 mg/mL), and, right before the measurements, appropriate dilutions with purified water were used to prepare the sample solutions, applying 0.1% DMSO as the electroosmotic flow (EOF) marker. The samples were injected hydrodynamically at 40 mbar for 3 s. The positive polarity voltage was set to 15 kV, and the capillary was set to 25 °C. The electropherograms were recorded at four wavelengths (200 nm, 210 nm, 215 nm, and 220 nm), and the data were evaluated at 215 nm. In each case, three parallel measurements were performed. The measurements were evaluated using Origin and CEval software (v. 0.6i3).
(§3) In order to determine the complex stability constants that characterized the strength of the complexes, the first step was to determine the effective mobility of the analyte at specific CD concentrations. Triangular peaks caused by electromigration dispersion are often observed in ACE measurements.
(§4) Assuming a 1:1 complexation ratio and that the equilibrium CD concentration is almost equal to the total CD concentration, a relationship between the effective mobility relative to the EOF and the complex stability constant can be described by Function (4) (4) μeff=μA+μACDKstabCD/1+KstabCD where µeff is the effective mobility of the analyte, µA and µACD are the free and complexed analyte mobilities, [CD] is the concentration of the selector, and Kstab is the complex stability constant.
(§5) In order to calculate the exact, apparent, averaged complex stability constant values, viscosity correction and ionic strength correction were used.

[2] = ACE complex stability, Phos-β-CD; assay type: physicochemical; settings: phosphated-β-CD DS~2-6, 30 mM phosphate buffer pH 7.4, 25 °C
Protocol: as §1, §2, §3, §4, §5

[3] = ACE complex stability, DIME-β-CD; assay type: physicochemical; settings: dimethylated-β-CD DS~14, 30 mM phosphate buffer pH 7.4, 25 °C
Protocol: as §1, §2
as §3, with “measurements. […]” for “measurements.”

[4] = ACE complex stability, α-CD; assay type: physicochemical; settings: 30 mM phosphate buffer pH 7.4, 25 °C, 15 kV, 215 nm
Protocol: as §1, §2, §3, §4, §5

[5] = ACE complex stability, CM-γ-CD; assay type: physicochemical; settings: carboxymethylated-γ-CD DS~4, 30 mM phosphate buffer pH 7.4, 25 °C
Protocol: as §1, §2, §3, §4, §5

[6] = ACE complex stability, RAME-β-CD; assay type: physicochemical; settings: randomly methylated-β-CD DS~12, 30 mM phosphate buffer pH 7.4, 25 °C
Protocol: as §1, §2, §3, §4, §5

[7] = ACE complex stability, MePIP-β-CD; assay type: physicochemical; settings: mono-6^A-(N-methyl-piperidine)-β-CD, positively charged, 30 mM phosphate buffer pH 7.4, 25 °C
Protocol: as §1, §2, §3, §4, §5

[8] = PAMPA-BBB permeability assay; assay type: in vitro ADME, porcine; settings: for in vitro BBB permeability: PAMPA-BBB, in words; for Papp at 4 h, 100 µM: pig, PAMPA, read-out: logPe PAMPA-BBB (n = 9) (converted)
Protocol: Kratom extracts were tested for the membrane permeability of their constituents in a PAMPA-BBB assay. […] The blood–brain barrier-specific assay was tested and optimized for natural products by Könczöl et al.; this PAMPA-BBB assay was therefore chosen to determine the BBB permeability of the kratom constituents. […] It should be noted, however, that among the minor components that were not the focus of this study, there may be BBB+ compounds with significant biological activity.
All four isolated kratom alkaloids were also tested in the PAMPA-BBB model. As it can be seen in Table 1, all the investigated compounds had logPe values of between −4.42 and −4.77, which were greater than −6.0; according to Könczöl et al., this value effectively discriminates between compounds with good (BBB+) and poor (BBB−) blood–brain barrier permeability.
PAMPA-BBB was used to determine the effective permeability (Pe) for some extracts and the isolated compounds. Stock solutions (10 mM in DMSO) were diluted with the buffer (pH 7.4) to obtain the donor solutions (composition: 594.0 μL buffer + 6.0 μL stock solution). The buffer was prepared as follows: one PBS (phosphate-buffered saline, pH 7.4; Sigma Aldrich, Budapest, Hungary) tablet dissolved in 200.0 mL distilled water. Donor solutions were filtered through Phenex-RC 15 mm, 0.2 μm syringe filters (Gen-Lab Ltd., Budapest, Hungary).
For PAMPA-BBB, 5 μL of porcine polar brain lipid extract (PBLE) solution (16.0 mg of PBLE + 8.0 mg of cholesterol dissolved in 600.0 μL of n-dodecane) was applied to each well of 96-well polycarbonate-based filter donor plates (top plate) (Multiscreen™-IP, MAIPN4510, pore size 0.45 μm; Merck). The 96-well PTFE acceptor plates (bottom plates) (Multiscreen Acceptor Plate, MSSACCEPTOR; Merck) were filled with 300.0 μL of buffer solution (0.01 M PBS buffer, pH 7.4). The donor plate was placed upon the acceptor plate, and both plates were incubated together at 37 °C for 4 h in a Heidolph Titramax 1000 Vibrating platform shaker (Heidolph, Schwabach, Germany).
After incubation, sandwich plates were separated, and the concentrations of each compound in the starting donor solution and in the acceptor and donor wells were determined in triplicate by the chromatographic peak areas derived from the UHPLC-UV method described above. The UV spectra and chromatograms were recorded at 200–400 nm, and the chromatograms acquired at the UV absorption maxima of each compound were used for data evaluation. The effective permeability and the membrane retention in PAMPA-BBB were calculated by Equations (1) and (2), respectively:(1) Pe=−2.303/A(t−τSS)·(VA·VD/VA+VD)·lg[1−(VA+VD/(1−MR)·VD)×(CA(t)/CD(0))] where Pe is the effective permeability coefficient (cm/s), A is the filter area (0.24 cm^2), VD and VA are the volumes in the donor (0.15 cm^3) and acceptor phases (0.30 cm^3), t is the incubation time (s), τSS is the time (s) to reach the steady state (240 s), CD(t) is the concentration (mol/cm^3) of the compound in the donor phase at time t, CD(0) is the concentration (mol/cm^3) of the compound in the donor phase at time 0, and MR is the estimated membrane retention factor (the estimated mole fraction of solute lost to the membrane), defined as (2) MR=1−CD(t)/CD(0)−VA/VDCA(t)/CD(0)
All experiments were performed in triplicate on three consecutive days (n = 9); caffeine standard was used as the positive control, with rutin as the negative control.

[9] = pH 7.4, 37 °C, 4 h, n = 9, Pe in cm/s

Compound	complex stability constant (Kstab) with γ-CD [1]	complex stability constant (Kstab) with Phos-β-CD [2]	complex stability constant (Kstab) with DIME-β-CD [3]	complex stability constant (Kstab) with α-CD [4]	complex stability constant (Kstab) with CM-γ-CD [5]	complex stability constant (Kstab) with RAME-β-CD [6]	complex stability constant (Kstab) with MePIP-β-CD [7]	in vitro BBB permeability [8]	Papp at 4 h, 100 µM [8, 9]	logPe PAMPA-BBB (n = 9) [8, 9]
C=C[C@H]1CN2CCc3c([nH]c4cccc(OC)c34)[C@@H]2C[C@@H]1/C(=C\OC)C(=O)OC [Paynantheine, paynantheine]	140 ± 5 M⁻¹	335 ± 30 M⁻¹	325 ± 30 M⁻¹	20 ± 2 M⁻¹	180 ± 20 M⁻¹	170 ± 30 M⁻¹	< 10 M⁻¹	excellent	24.5 ×10⁻⁶ cm/s	–
CC[C@@H]1CN2CCc3c([nH]c4cccc(OC)c34)[C@H]2C[C@@H]1/C(=C\OC)C(=O)OC [Speciociliatine, speciociliatine]	15 ± 1 M⁻¹	215 ± 15 M⁻¹	100 ± 6 M⁻¹	22 ± 3 M⁻¹	120 ± 12 M⁻¹	20 ± 2 M⁻¹	< 10 M⁻¹	excellent	26.3 ×10⁻⁶ cm/s	–
CC[C@H]1CN2CCc3c([nH]c4cccc(OC)c34)[C@@H]2C[C@@H]1/C(=C\OC)C(=O)OC [Speciogynine, speciogynine]	45 ± 4 M⁻¹	420 ± 30 M⁻¹	–	23 ± 5 M⁻¹	140 ± 12 M⁻¹	40 ± 1 M⁻¹	< 10 M⁻¹	excellent	17 ×10⁻⁶ cm/s	–
mitragynine	55 ± 5 M⁻¹	290 ± 30 M⁻¹	150 ± 15 M⁻¹	25 ± 2 M⁻¹	200 ± 10 M⁻¹	95 ± 9 M⁻¹	< 10 M⁻¹	excellent	–	−4.42 ± 0.61
